Results taken from US11945822B2, “Pyrazolo-triazine and/or pyrazolo-pxrimidine derivatives as selective inhibitor of cyclin dependent kinase” (QURIENT CO., LTD., priority 2018, dated 2024).

Target: T1, CDK1/Cyclin B (Homo sapiens, UniProt P06493)
T1 construct: purchased Invitrogen PR4768C
Test: Enzymatic assay for CDK1 (FRET based LANCE Ultra kinase assay)
Assay type: biochemical
Conditions: read-out: CDK1 enzymatic activity (IC50 range)
Summary of the method: (§1)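 Each CDK complex ([…]) phosphorylated 68 nM ULight-MBP peptide with ATP at Km for 60 min at 23° C., against 8 compound doses (4-fold dilutions). EDTA/Eu-anti-phospho-MBP detection, 60 min, then TR-FRET emission at 615 and 665 nm.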

T1 sequence (P06493 whole entry): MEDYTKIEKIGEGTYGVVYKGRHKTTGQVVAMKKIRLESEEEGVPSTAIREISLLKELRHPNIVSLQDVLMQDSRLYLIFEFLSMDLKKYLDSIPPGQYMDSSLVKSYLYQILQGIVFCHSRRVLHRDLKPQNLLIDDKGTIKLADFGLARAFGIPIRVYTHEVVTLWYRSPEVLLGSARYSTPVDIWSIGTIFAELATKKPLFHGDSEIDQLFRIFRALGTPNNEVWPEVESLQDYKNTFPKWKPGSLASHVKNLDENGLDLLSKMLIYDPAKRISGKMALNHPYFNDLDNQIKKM
T1 sequence (P14635 whole entry partner): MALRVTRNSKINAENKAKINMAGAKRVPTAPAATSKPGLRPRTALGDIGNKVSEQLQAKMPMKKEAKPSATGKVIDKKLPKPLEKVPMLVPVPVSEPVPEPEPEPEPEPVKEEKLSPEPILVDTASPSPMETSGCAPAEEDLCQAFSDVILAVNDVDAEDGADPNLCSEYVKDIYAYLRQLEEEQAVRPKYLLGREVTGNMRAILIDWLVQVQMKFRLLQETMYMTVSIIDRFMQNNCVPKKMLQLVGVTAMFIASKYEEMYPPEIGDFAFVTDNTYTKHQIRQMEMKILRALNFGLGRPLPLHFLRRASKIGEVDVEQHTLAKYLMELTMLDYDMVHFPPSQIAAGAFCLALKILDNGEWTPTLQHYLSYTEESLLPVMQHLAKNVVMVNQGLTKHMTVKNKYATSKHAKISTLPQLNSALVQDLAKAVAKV

Row | IC50 [nM] | SMILES
1 | > 1000 | CC(=O)NC1CCc2nn(-c3ccccc3CNc3nc(N4CCC(N)CC4)nc4c(C(C)C)cnn34)cc2C1 (stereo not drawn) [Compound 150]
2 | > 1000 | CNC(=O)c1ccc2nc(-c3ccccc3CNc3nc(N4CCC(N)CC4)nc4c(C(C)C)cnn34)cnc2c1 [Compound 153]
3 | > 1000 | CC(C)c1cnn2c(NCc3ccccc3-n3cc(C(=O)N4CCN(C)CC4)cn3)nc(N3CCC(N)CC3)nc12 [Compound 154]

Target: T2, CDK2/Cyclin A (Homo sapiens, UniProt P24941)
T2 construct: purchased Invitrogen PV6290
Test: Enzymatic assay for CDK2 (FRET based LANCE Ultra kinase assay)
Assay type: biochemical
Conditions: read-out: CDK2 enzymatic activity (IC50 range)
Summary of the method: as §1

Row | IC50 [nM] | SMILES
4 | > 1000 | CC(=O)NC1CCc2nn(-c3ccccc3CNc3nc(N4CCC(N)CC4)nc4c(C(C)C)cnn34)cc2C1 (stereo not drawn) [Compound 150]
5 | > 1000 | CNC(=O)c1ccc2nc(-c3ccccc3CNc3nc(N4CCC(N)CC4)nc4c(C(C)C)cnn34)cnc2c1 [Compound 153]
6 | 100 to 1000 | CC(C)c1cnn2c(NCc3ccccc3-n3cc(C(=O)N4CCN(C)CC4)cn3)nc(N3CCC(N)CC3)nc12 [Compound 154]

System: MM.1S
Test: Cellular MM.1S viability assay (CellTiter-Glo, 72 hours)
Assay type: cell-based
Conditions: Homo sapiens, MM1.S
Text: Human T-cell acute lymphoblastic leukemia cell line, MOLT-4 (ATCC, Cat #CRL-1582), Human multiple myeloma cell line, RPMI-8226 (Invitrogen, Cat #22400-089) and MM.1S (ATCC, Cat #CRL-2974), NSCLC (Non-small cell lung cancer) cell line H460 (ATCC, Cat #HTB-177), Human colon colorectal carcinoma cell line HCT116 (ATCC, Cat #CCL-247), Human acute monocytic leukemia cell line MV4-11 (ATCC, Cat #CRL-9591), OVCAR-3 (ATCC, Cat #HTB-161) and A2780 (ECACC, Cat #93112519) were obtained from ATCC. Cells were grown in RPMI-1640 media (Invitrogen, Cat #22400-089) supplemented with 10% FBS (Invitrogen, Cat #10099141) and 1% penicillin/streptomycin (Invitrogen, Cat #15070063) and cultured at 37° C., 5% CO2 in a humidified chamber. All cell lines were routinely tested for mycoplasma.
The effect of the CDK7 inhibitor to inhibit the growth of target cancer cells was evaluated through the 72 hours time period of viability assay. Briefly, the candidate cell line ware plated in 96 well plate at the following density of cells respectively. 1×10^4 cells/well for MOLT-4, RPMI-8226, MV4-11 and MM.1S, 5×10^3 for H460, HCT116 and OVCAR-3 and IX 10^3 for A2780. After 24 hours, the cells were treated with various concentrations of the compound (ranging from 0.0015 uM to 10 uM). DMSO solvent without compound served as a control and final DMSO concentration less than 0.1%. After 72 hours of incubation at 37° C., 5% CO2 incubator, cells were analyzed for the viability using the CellTiter-Glo Luminescent Cell Viability Assay (Promega, Cat #G7570). All viability assays were performed in duplicate and Luminescence was read using an Envision (Perkin Elmer, USA). Data was analyzed using XLfit software.

Row | IC50 [nM] | SMILES
7 | ≤ 1000 | CC(=O)NC1CCc2nn(-c3ccccc3CNc3nc(N4CCC(N)CC4)nc4c(C(C)C)cnn34)cc2C1 (stereo not drawn) [Compound 150]
8 | ≤ 1000 | CNC(=O)c1ccc2nc(-c3ccccc3CNc3nc(N4CCC(N)CC4)nc4c(C(C)C)cnn34)cnc2c1 [Compound 153]
9 | ≤ 1000 | CC(C)c1cnn2c(NCc3ccccc3-n3cc(C(=O)N4CCN(C)CC4)cn3)nc(N3CCC(N)CC3)nc12 [Compound 154]

Target: T3, CDK5/p25 (Homo sapiens, UniProt Q00535)
T3 construct: purchased Invitrogen PR8543B
T3 sequence (Q00535 whole entry): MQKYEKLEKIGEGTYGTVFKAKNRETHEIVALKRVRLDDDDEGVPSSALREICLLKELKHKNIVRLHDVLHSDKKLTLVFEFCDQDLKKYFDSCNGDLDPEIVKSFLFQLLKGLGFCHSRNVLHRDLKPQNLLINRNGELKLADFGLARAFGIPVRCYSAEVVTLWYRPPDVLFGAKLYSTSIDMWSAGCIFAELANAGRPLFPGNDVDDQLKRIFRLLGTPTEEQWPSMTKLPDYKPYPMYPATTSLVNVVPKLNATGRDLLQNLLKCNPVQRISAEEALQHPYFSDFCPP
T3 sequence (Q15078 99-307 partner limits assumed): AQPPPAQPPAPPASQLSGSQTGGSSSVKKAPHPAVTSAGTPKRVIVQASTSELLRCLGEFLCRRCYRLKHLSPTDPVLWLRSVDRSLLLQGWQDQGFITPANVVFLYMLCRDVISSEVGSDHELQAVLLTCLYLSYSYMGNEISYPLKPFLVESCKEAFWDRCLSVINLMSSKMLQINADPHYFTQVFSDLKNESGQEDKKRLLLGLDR
Test: Enzymatic assay for CDK5 (FRET based LANCE Ultra kinase assay)
Assay type: biochemical
Conditions: read-out: CDK5 enzymatic activity (IC50 range)
Summary of the method: as §1

Row | IC50 [nM] | SMILES
10 | 100 to 1000 | CC(=O)NC1CCc2nn(-c3ccccc3CNc3nc(N4CCC(N)CC4)nc4c(C(C)C)cnn34)cc2C1 (stereo not drawn) [Compound 150]
11 | 100 to 1000 | CNC(=O)c1ccc2nc(-c3ccccc3CNc3nc(N4CCC(N)CC4)nc4c(C(C)C)cnn34)cnc2c1 [Compound 153]
12 | < 100 | CC(C)c1cnn2c(NCc3ccccc3-n3cc(C(=O)N4CCN(C)CC4)cn3)nc(N3CCC(N)CC3)nc12 [Compound 154]

Target: T4, CDK7/Cyclin H/MNAT1 (Homo sapiens, UniProt P50613)
T4 construct: purchased Invitrogen PR6749B
T4 sequence (P50613 whole entry): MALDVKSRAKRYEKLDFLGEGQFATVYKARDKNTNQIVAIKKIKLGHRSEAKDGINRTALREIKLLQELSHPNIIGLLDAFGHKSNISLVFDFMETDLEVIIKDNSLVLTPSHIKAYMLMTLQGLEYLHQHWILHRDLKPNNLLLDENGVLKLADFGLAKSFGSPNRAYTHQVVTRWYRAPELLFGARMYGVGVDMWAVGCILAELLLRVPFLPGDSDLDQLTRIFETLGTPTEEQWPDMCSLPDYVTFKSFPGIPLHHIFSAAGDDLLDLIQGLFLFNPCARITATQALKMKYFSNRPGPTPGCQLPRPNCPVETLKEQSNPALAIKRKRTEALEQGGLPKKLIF
T4 sequence (P51946 whole entry partner): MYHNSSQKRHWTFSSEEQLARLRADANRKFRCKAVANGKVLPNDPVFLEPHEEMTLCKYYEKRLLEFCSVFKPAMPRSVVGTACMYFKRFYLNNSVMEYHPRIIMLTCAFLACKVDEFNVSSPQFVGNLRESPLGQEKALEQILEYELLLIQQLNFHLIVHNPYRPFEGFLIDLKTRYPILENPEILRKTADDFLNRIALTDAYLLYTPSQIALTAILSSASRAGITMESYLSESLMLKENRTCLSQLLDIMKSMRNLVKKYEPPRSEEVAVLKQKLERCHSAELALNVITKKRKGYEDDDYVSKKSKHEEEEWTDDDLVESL
T4 sequence (P51948 whole entry partner): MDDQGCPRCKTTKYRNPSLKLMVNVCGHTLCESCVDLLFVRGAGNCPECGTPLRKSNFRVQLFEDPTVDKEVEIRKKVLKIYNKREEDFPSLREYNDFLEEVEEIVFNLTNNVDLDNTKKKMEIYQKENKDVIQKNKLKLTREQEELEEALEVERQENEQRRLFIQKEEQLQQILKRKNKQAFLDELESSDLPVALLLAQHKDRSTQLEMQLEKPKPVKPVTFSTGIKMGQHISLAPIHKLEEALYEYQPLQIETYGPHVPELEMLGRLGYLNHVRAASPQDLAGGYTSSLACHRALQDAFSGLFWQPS
Test: Enzymatic assay for CDK7 (FRET based LANCE Ultra kinase assay)
Assay type: biochemical
Conditions: CDK7 over CDK1
Summary of the method: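 Inhibition was measured at Km ATP by time-resolved FRET between a Eu anti-phospho antibody and a phosphorylated ULight peptide. The enzyme was the purified CDK7/cyclin complex, and data were curve-fitted.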

Row | CDK1/CDK7: Selectivity of CDK7 inhibition over CDK1 inhibition | SMILES
13 | A (A=greater than 200 fold) | CC(=O)NC1CCc2nn(-c3ccccc3CNc3nc(N4CCC(N)CC4)nc4c(C(C)C)cnn34)cc2C1 (stereo not drawn) [Compound 150]
14 | A (A=greater than 200 fold) | CNC(=O)c1ccc2nc(-c3ccccc3CNc3nc(N4CCC(N)CC4)nc4c(C(C)C)cnn34)cnc2c1 [Compound 153]
15 | A (A=greater than 200 fold) | CC(C)c1cnn2c(NCc3ccccc3-n3cc(C(=O)N4CCN(C)CC4)cn3)nc(N3CCC(N)CC3)nc12 [Compound 154]

Same assay, conditions: CDK7 over CDK2

Row | CDK2/CDK7: Selectivity of CDK7 inhibition over CDK2 inhibition | SMILES
16 | A (A=greater than 200 fold) | CC(=O)NC1CCc2nn(-c3ccccc3CNc3nc(N4CCC(N)CC4)nc4c(C(C)C)cnn34)cc2C1 (stereo not drawn) [Compound 150]
17 | A (A=greater than 200 fold) | CNC(=O)c1ccc2nc(-c3ccccc3CNc3nc(N4CCC(N)CC4)nc4c(C(C)C)cnn34)cnc2c1 [Compound 153]
18 | A (A=greater than 200 fold) | CC(C)c1cnn2c(NCc3ccccc3-n3cc(C(=O)N4CCN(C)CC4)cn3)nc(N3CCC(N)CC3)nc12 [Compound 154]

Same assay, conditions: CDK7 over CDK5

Row | SMILES | CDK5/CDK7: Selectivity of CDK7 inhibition over CDK5 inhibition
19 | CC(=O)NC1CCc2nn(-c3ccccc3CNc3nc(N4CCC(N)CC4)nc4c(C(C)C)cnn34)cc2C1 (stereo not drawn) [Compound 150] | B (B=less than 200 fold, but greater than 20 fold)
20 | CNC(=O)c1ccc2nc(-c3ccccc3CNc3nc(N4CCC(N)CC4)nc4c(C(C)C)cnn34)cnc2c1 [Compound 153] | B (B=less than 200 fold, but greater than 20 fold)
21 | CC(C)c1cnn2c(NCc3ccccc3-n3cc(C(=O)N4CCN(C)CC4)cn3)nc(N3CCC(N)CC3)nc12 [Compound 154] | B (B=less than 200 fold, but greater than 20 fold)

Same assay, conditions: read-out: CDK7 enzymatic activity (IC50 range)

Row | IC50 [nM] | SMILES
22 | < 100 | CC(=O)NC1CCc2nn(-c3ccccc3CNc3nc(N4CCC(N)CC4)nc4c(C(C)C)cnn34)cc2C1 (stereo not drawn) [Compound 150]
23 | < 100 | CNC(=O)c1ccc2nc(-c3ccccc3CNc3nc(N4CCC(N)CC4)nc4c(C(C)C)cnn34)cnc2c1 [Compound 153]
24 | < 100 | CC(C)c1cnn2c(NCc3ccccc3-n3cc(C(=O)N4CCN(C)CC4)cn3)nc(N3CCC(N)CC3)nc12 [Compound 154]

System: HCT116
Test: Cellular HCT116 viability assay (CellTiter-Glo, 72 hours)
Assay type: cell-based
Conditions: Homo sapiens, HCT-116
Summary of the method: (§2)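 Growth inhibition is assessed over a 72-hour incubation at 37 °C in 5% CO2, relative to DMSO vehicle (final concentration less than 0.1%). Luminescence from CellTiter-Glo serves as the viability signal.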

Row | IC50 [nM] | SMILES
25 | < 1000 | CC(=O)NC1CCc2nn(-c3ccccc3CNc3nc(N4CCC(N)CC4)nc4c(C(C)C)cnn34)cc2C1 (stereo not drawn) [Compound 150]
26 | < 1000 | CNC(=O)c1ccc2nc(-c3ccccc3CNc3nc(N4CCC(N)CC4)nc4c(C(C)C)cnn34)cnc2c1 [Compound 153]
27 | < 1000 | CC(C)c1cnn2c(NCc3ccccc3-n3cc(C(=O)N4CCN(C)CC4)cn3)nc(N3CCC(N)CC3)nc12 [Compound 154]

System: MV4-11
Test: Cellular MV4-11 viability assay (CellTiter-Glo, 72 hours)
Assay type: cell-based
Conditions: Homo sapiens
Summary of the method: as §2

Row | IC50 [nM] | SMILES
28 | < 1000 | CC(=O)NC1CCc2nn(-c3ccccc3CNc3nc(N4CCC(N)CC4)nc4c(C(C)C)cnn34)cc2C1 (stereo not drawn) [Compound 150]
29 | < 1000 | CNC(=O)c1ccc2nc(-c3ccccc3CNc3nc(N4CCC(N)CC4)nc4c(C(C)C)cnn34)cnc2c1 [Compound 153]
30 | < 1000 | CC(C)c1cnn2c(NCc3ccccc3-n3cc(C(=O)N4CCN(C)CC4)cn3)nc(N3CCC(N)CC3)nc12 [Compound 154]

System: H460
Test: Cellular H460 viability assay (CellTiter-Glo, 72 hours)
Assay type: cell-based
Conditions: Homo sapiens, NCI-H460
Summary of the method: as §2

Row | IC50 [nM] | SMILES
31 | < 1000 | CC(=O)NC1CCc2nn(-c3ccccc3CNc3nc(N4CCC(N)CC4)nc4c(C(C)C)cnn34)cc2C1 (stereo not drawn) [Compound 150]
32 | < 1000 | CNC(=O)c1ccc2nc(-c3ccccc3CNc3nc(N4CCC(N)CC4)nc4c(C(C)C)cnn34)cnc2c1 [Compound 153]
33 | < 1000 | CC(C)c1cnn2c(NCc3ccccc3-n3cc(C(=O)N4CCN(C)CC4)cn3)nc(N3CCC(N)CC3)nc12 [Compound 154]
